# Results taken from publication PMC8062632, “Structural studies of phosphorylation-dependent interactions between the V2R receptor and arrestin-2” (Nature Communications, 2021).
# Target: arrestin2
# Test: Cou-facilitated FRET assay for dissociation constant determination
# Type: binding, bovine
# Settings: for Kd: 1 μM arrestin2 L293Cou with 1 μM Fab30, rising phosphopeptide concentrations, 25 °C, excitation 280 nm, ratio F450/F330; for reduction of affinity for arrestin2 compared with V2Rpp-FP: from FRET Kd values
# Description: Steady state fluorescence was measured by a Varioskan flash (Thermo Scientific) instrument at 25 °C. […] Fluorescence intensity analysis of normalized ratio F450/F330 was calculated from relative fluorescence intensity at 450 and 330 nm. The dissociation constant was determined by fitting to the nonlinear regression equation y = Bmax [X] / (Kd + [X]) + NS[X] + Background as ours previously reported. […]
# different phospho-peptide binding. a). Schematic flowchart of FRET assay for dissociation constant determination of arrestin-phospho-peptide interaction.
# The synthetic fluorescent amino acid L-(7-hydroxycoumarin-4-yl) ethylglycine (Cou) was genetically incorporated into arrestin2 and served as a fluorescent acceptor for the emission light at 330 nm, and tryptophan served as the donor, which was excited at 280 nm. Cou produced its characteristic emission light at 450 nm. b). Analysis of the titration experiments monitored by FRET assay. The dissociation constant was determined by fitting to the nonlinear regression equation y = Bmax[X]/(Kd + [X]) + NS[X]+Background as previously described4. […]
Kd [µM],Compound,reduction of affinity for arrestin2 compared with V2Rpp-FP
3.3 ± 0.6,CC(C)C[C@H](NC(=O)[C@H](COP(=O)(O)O)NC(=O)[C@@H]1CCCN1C(=O)[C@@H]1CCCN1C(=O)[C@@H](NC(=O)[C@H](CCCNC(=N)N)NC(=O)CNC(=O)[C@H](CCCNC(=N)N)NC(=O)[C@H](C)N)[C@@H](C)O)C(=O)NCC(=O)N1CCC[C@H]1C(=O)N[C@@H](CCC(N)=O)C(=O)N[C@@H](CC(=O)O)C(=O)N[C@@H](CCC(=O)O)C(=O)N[C@@H](COP(=O)(O)O)C(=O)N[C@@H](CS)C(=O)N[C@H](C(=O)N[C@H](C(=O)N[C@@H](C)C(=O)N[C@@H](COP(=O)(O)O)C(=O)N[C@@H](COP(=O)(O)O)C(=O)N[C@@H](COP(=O)(O)O)C(=O)N[C@@H](CC(C)C)C(=O)N[C@@H](C)C(=O)N[C@@H](CCCCN)C(=O)N[C@@H](CC(=O)O)C(=O)N[C@H](C(=O)N[C@@H](CO)C(=O)N[C@@H](CO)C(=O)O)[C@@H](C)O)[C@@H](C)OP(=O)(O)O)[C@@H](C)OP(=O)(O)O [V2Rpp-1],approximately 3 fold
3 ± 0.4,CC(C)C[C@H](NC(=O)[C@H](COP(=O)(O)O)NC(=O)[C@@H]1CCCN1C(=O)[C@@H]1CCCN1C(=O)[C@@H](NC(=O)[C@H](CCCNC(=N)N)NC(=O)CNC(=O)[C@H](CCCNC(=N)N)NC(=O)[C@H](C)N)[C@@H](C)OP(=O)(O)O)C(=O)NCC(=O)N1CCC[C@H]1C(=O)N[C@@H](CCC(N)=O)C(=O)N[C@@H](CC(=O)O)C(=O)N[C@@H](CCC(=O)O)C(=O)N[C@@H](CO)C(=O)N[C@@H](CS)C(=O)N[C@H](C(=O)N[C@H](C(=O)N[C@@H](C)C(=O)N[C@@H](COP(=O)(O)O)C(=O)N[C@@H](COP(=O)(O)O)C(=O)N[C@@H](COP(=O)(O)O)C(=O)N[C@@H](CC(C)C)C(=O)N[C@@H](C)C(=O)N[C@@H](CCCCN)C(=O)N[C@@H](CC(=O)O)C(=O)N[C@H](C(=O)N[C@@H](CO)C(=O)N[C@@H](CO)C(=O)O)[C@@H](C)O)[C@@H](C)OP(=O)(O)O)[C@@H](C)OP(=O)(O)O [V2Rpp-3],approximately 3 fold
5.1 ± 0.7,CC(C)C[C@H](NC(=O)[C@H](COP(=O)(O)O)NC(=O)[C@@H]1CCCN1C(=O)[C@@H]1CCCN1C(=O)[C@@H](NC(=O)[C@H](CCCNC(=N)N)NC(=O)CNC(=O)[C@H](CCCNC(=N)N)NC(=O)[C@H](C)N)[C@@H](C)OP(=O)(O)O)C(=O)NCC(=O)N1CCC[C@H]1C(=O)N[C@@H](CCC(N)=O)C(=O)N[C@@H](CC(=O)O)C(=O)N[C@@H](CCC(=O)O)C(=O)N[C@@H](COP(=O)(O)O)C(=O)N[C@@H](CS)C(=O)N[C@H](C(=O)N[C@H](C(=O)N[C@@H](C)C(=O)N[C@@H](COP(=O)(O)O)C(=O)N[C@@H](COP(=O)(O)O)C(=O)N[C@@H](COP(=O)(O)O)C(=O)N[C@@H](CC(C)C)C(=O)N[C@@H](C)C(=O)N[C@@H](CCCCN)C(=O)N[C@@H](CC(=O)O)C(=O)N[C@H](C(=O)N[C@@H](CO)C(=O)N[C@@H](CO)C(=O)O)[C@@H](C)O)[C@@H](C)O)[C@@H](C)OP(=O)(O)O [V2Rpp-4],~5 fold
